# Assays:
# [1] = test system: neuronal cell lines M17, Neuro2a and non-neuronal cell lines HEK293, HIT-T15; format: cell-based
# HIT-T15 cells [2] = format: cell-based, human
# HIT-T15 cells [3] = format: cell-based, human; remark: listed apart in the source
# M17 cells [4] = test system: M17 cells
# [5] = test system: primary rat granule cerebellar neurons (RGCN)
# M17 cells [6] = format: cell-based
structure (smiles),measurement,setting,value
"CO/C1=C\C(C)=C\[C@@H](C)[C@@H](O)[C@@H](C)C/C(C)=C/C=C/[C@H](OC)[C@@H]([C@@H](C)[C@@H](O)[C@H](C)[C@@]2(O)C[C@@H](O)[C@H](C)[C@@H](C(C)C)O2)OC1=O [Bafilomycin, Bafilomycin A1]",inhibition of BoNT intoxication,[1],clearly inhibited
same,sensitivity of functional transduction of BoNT Lc to bafilomycin,[1],fully sensitive
same,inhibition of functional internalization of recombinant BoNT/A Lc,HIT-T15 cells [2],inhibited functional internalization
same,effect on efficiency of plasmid DNA transfection mediated by FuGene (fluorescent protein expression),HIT-T15 cells [3],no inhibitory effect
same,inhibition of SNAP25 cleavage by BoNT/A holotoxin,M17 cells [4],inhibited SNAP25 cleavage
same,bafilomycin cytotoxicity,HEK293 cells,particularly susceptible to bafilomycin toxicity
same,SNAP25 cleavage in bafilomycin-treated cells,[5],a small amount of SNAP25 cleavage was observed
same,cytotoxicity (visual),[5],Some cytoxicity
same,inhibition of BoNT/A intoxication (SNAP25 cleavage),[5],completely inhibit
same,effect on efficiency of plasmid DNA transfection mediated by FuGene (fluorescent protein expression),M17 cells [6],no inhibitory effect

# Source: patent US8492109B2 (priority 2009, dated 2013)
